Series [1] can be described thus: Acute toxicity, 50% lethal dose (LD50), oral administration, mice. The following applies: mouse, in vivo, Swiss mice of the CDl strain, both sexes, calculated graphically. As to the method:
The tests were carried out on Swiss mice of the CDl strain, of both sexes, and the 50% lethal doses (LD50) were calculated graphically.

The subject of series [2] is pain induced in CDl mice by the intraperitoneal injection of acetic acid. The series can be described thus: Koster test: analgesic effect against pain induced by intraperitoneal injection of acetic acid, oral administration. The class given is in vivo. The following applies: Mus musculus, read-out: Analgesic activity, Koster test ED50 (50% effective dose). The text has this:
The analgesic effect was investigated in accordance with two conventional experimental procedures.

[3] abbreviates: oral administration, CDl mice, acetic acid i.p.

Where two headings read alike, the source gives them in different places. Bounds are passed on as bounds.

By LD50 is commonly meant the dose expected to kill half of the subjects tested. The term ED50 denotes the dose that gives a 50% effect, or the effect in half of the subjects. Turning to `O=C(OCCN1CCN(c2cccc(C(F)(F)F)c2)CC1)c1ccccc1` [SLB 108, 2-(4-m-Trifluoromethylphenylpiperazino)-ethyl benzoate], the 50% lethal dose (LD50) in series [1] was greater than 4000 mg/kg. Besides, the median effective dose (ED50) in series [2] (po) was found to be 10 mg/kg.

In the case of `CCCC(CCC)C(=O)OCCN1CCN(c2cccc(C(F)(F)F)c2)CC1` [SLB 198, 2-(4-m-Trifluoromethylphenyl-piperazino)-ethyl 2-n-propyl-pentanoate], the median lethal dose (LD50) in series [1] was 2200 mg/kg. Also, in series [2] (setting [3]), the median effective dose (ED50) amounted to 4.3 mg/kg.

With `Cc1c(N(C)C)c(=O)n(-c2ccccc2)n1C` [Amidopyrine, reference compound], in series [2] (setting [3]), the 50% effective dose (ED50) was found to be 40 mg/kg.

Take `COc1cc(C(=O)OCCN2CCN(c3cccc(C(F)(F)F)c3)CC2)cc(OC)c1OC` [SLB 169, 2-(4-m-Trifluoromethylphenylpiperazino)-ethyl 3,4,5-trimethoxybenzoate]: the LD50 in series [1] was 2200 mg/kg. In addition, the ED50 in series [2] (setting [3]) is 15 mg/kg.

Consider `CC(=O)OCCN1CCN(c2cccc(C(F)(F)F)c2)CC1` [SLB 093, 2-(4-m-Trifluoromethylphenylpiperazino)-ethyl acetate], for which the LD50 in series [1] is 925 mg/kg. The ED50 in series [2] (setting [3]) turned out to be 3.5 mg/kg.
